“Also recorded” adds a separate entry of the source. Where two headings read alike, the source gives them in different places.
Columns and labels:
[1] = system: MCA205 fibrosarcoma tumor; assay type: in vivo, mouse; conditions: single i.p.
Protocol: 7-8 weeks-old female C57BL/6 mice (mean body weight, 20 g) were purchased from Harlan Laboratories (Gannat, France). Animals were used in pathogen-free conditions. MCA205 fibrosarcoma tumor cell line (syngenic from C57Bl/6 mice) was kindly provided by Dr Yamazaki Takahiro (INSERM U1015, Gustave Roussy, Villejuif, France). They were harvested at 37° C. under 5% CO2 in Gibco™ RPMI 1640 medium (Paisley, UK) supplemented with 10% Fetal Bovine Serum (Paisley, UK) and 2 mM L-glutamine (Invitrogen, USA). All animal experiments were carried out in compliance with French and European laws and regulations and by the CEEA26 Ethic committee and the ministry of national education, higher education and research and carried out under conditions established by the European Community (Directive 2010/63/2015-038).
(§1) 8·10^5 tumor cells were inoculated subcutaneously (s.c.) in the right flank of C57Bl/6 mice on DO.
Regarding study for combination between chemotherapy (G-IFO) and anti-PD1 mAbs, mice received G-IFO or vehicle on D9 then 200 μg/mouse i.p. injections of anti-PD1 mAbs (clone RMP1-14) or its isotype control Rat IgG2a (clone 2A3) on D12, D15 and D19. Tumor volume was followed-up three times a week by measuring the length and width using a caliper. In order to normalize tumor measurements for each day VTDx to VTDi (VTDx/VTDi) ratio was calculated; VTDi corresponds to the tumor volume the day of treatment initiation and VTDx corresponds to the tumor volume on each measurement day for each mouse.

[2] = system: IFNγ, IL-17A and IL-6 secretion; test: TCR-driven cytokine release by splenocytes of treated naive mice; assay type: in vivo, mouse; conditions: CPA 100 mg/kg, IFO 100, 150 and 200 mg/kg, CD3ε+CD28 stimulation
Protocol: (§2) Female C57BL/6 mice of 7 to 8 weeks were randomly assigned to the different treatment groups. […] Both drugs were dissolved in a solution of NaCl 0.9%. […] Seven days post treatment, the mice were sacrificed, spleens and tumors were collected. After lysis of red blood cells with ammonium chloride splenic viable cells were quantified with Trypan Blue with Vi-CELL XR (Beckman Coulter).
(§3) From spleen cell suspension, a total of 2·10^5 cells per well were incubated in 96 well Nunc MaxiSorp® plates (eBioscience) precoated with anti-CD3ε mAbs (clone 145-2C11, 10 μg/mL); eBioscience) and/or anti-CD28 mAbs (clone 37.57, 2 μg/mL; BD Pharmingen). The supernatants were assayed after 48 hours of incubation at 37° C. under 5% CO2 using Cytokine concentrations were quantified in the supernatant using a Bio-Plex™ Mouse Cytokine Standard 23-Plex, Group I Assay (bio rad, M60009RDPD). The panel was comprised of the following cytokines and chemokines: eotaxin, Granulocyte-Colony Stimulating Factor (G-CSF), Granulocyte-Macrophage-Colony Stimulating Factor (GM-CSF), interferon gamma (IFNγ), interleukin (IL)-1α (IL-1α), IL-1β, IL-2, IL-3, IL-4, IL-5, IL-6, IL-9, IL-10, IL-12p40, IL-12p70, IL-13, IL-17A, Keratinocyte Chemoattractant (KC), Macrophage Chemotactic Protein-1 (MCP-1), Macrophage Inflammatory Protein (MIP)-1alpha (MIP-1α), MIP-1β, Regulated on Activation Normal T cell Expressed and Secreted (RANTES) and Tumor Necrosis Factor-alpha (TNF-α). Results were analyzed using Bio-Plex Manager Software V 6.1 (Bio-Rad Laboratories, Hercules, CA, USA). […] These three cytokines were then quantified using mouse IL-17A ELISA Ready-SET-Go® (eBiosciences), Mouse IFNy ELISA Set (BD Biosciences) and Mouse IL-6 ELISA Set (BD Biosciences).

B cells = assay type: in vivo, mouse; conditions: for B cell depletion in the spleen: FIG. 4, IFO 150 mg/kg, CPA 100 mg/kg, G-IFO eq. 100 or 150 mg/kg, single i.p., 7 days
Protocol: as §2
(§4) Briefly, tumor dissociation was done with GentleMACS™ Dissociator after adding ADNase (260913, Millipore) and […] (5401127001, Sigma) to weighed and cut tumors. Tumor cells were incubated for 40 min at 37° C. under stirring and then quantified with Trypan Blue with Vi-CELL XR (Beckman Coulter). Before staining, Fcγ-receptors were blocked for 15 min at 4° C. using anti-CD16/32 functional grade purified antibodies (eBioscience, Paris, France). Cells were incubated for 30 min at 4° C. with antibodies for cell surface staining. For FoxP3 staining, cells were fixed and permeabilized after cell surface staining according to the FoxP3 kit protocol (eBioscience, Paris, France). Samples were acquired on 10-colors Gallios cytometer (Beckman Coulter, Villepinte, France). Analyses were performed using Kaluza software 1.3 (Beckman Coulter). Two different panels were used to identify immune cells. First leucocytes were identified by the use of FITC-conjugated anti-mouse CD45. T and B lymphocytes were identified using APC-Cy7-conjugated anti-mouse CD3 and BV421-conjugated anti-mouse CD19 respectively. CD4^+ and CD8^+ T cells were separated using PE-Cy7-conjugated anti-mouse CD4 and APC-R700-conjugated anti-mouse CD8a staining among CD3 positive cells, respectively. Treg cells were stained using APC-conjugated anti-mouse FoxP3 staining among CD3^+CD4^+ T cells (Table 1).

rhabdomyosarcoma = conditions: murine model of rhabdomyosarcoma; cited from earlier work
T cells = assay type: in vivo, mouse; conditions: for T cell counts: tumor-bearing mice
Protocol: (§5) Female C57BL/6 mice of 7 to 8 weeks were randomly assigned to the different treatment groups. […] Both drugs were dissolved in a solution of NaCl 0.9%. […] The administrations were performed by a single i.p. injection with a volume of 20 mL/kg or 10 mL/kg when adding G-IFO groups. Seven days post treatment, the mice were sacrificed, spleens and tumors were collected. After lysis of red blood cells with ammonium chloride splenic viable cells were quantified with Trypan Blue with Vi-CELL XR (Beckman Coulter).
as §4

[3] = mice, intravenous route; cited from earlier work
[4] = system: large panel of tumor cells; conditions: in vitro; cited from earlier work
[5] = system: IFNγ, IL-17A and IL-6 secretion; test: TCR-driven cytokine release by splenocytes of treated MCA205 tumor-bearing mice; assay type: in vivo, mouse
Protocol: as §5, §3

[6] = system: MCA205 fibrosarcoma tumor; test: Antitumor activity of IFO in MCA205-bearing mice depleted in CD4+ and/or CD8+ T cells; assay type: in vivo, mouse
Source text: as §1

osteosarcoma = conditions: high dose, cumulative dose of 14 000 mg/m^2, cited from earlier work
[7] = system: advanced refractory soft tissue; conditions: high dose, cumulative dose of 12 000 mg/m2; cited from earlier work
several cancerous cells = conditions: cited from earlier work
[8] = IFO 100 and 150 mg/kg, CD3ε and CD28 co-stimulation

O=P1(N(CCCl)CCCl)NCCCO1 (stereo not drawn) [CPA, Cyclophosphamide]
tumor growth ([1]; CPA 100 mg/kg): Significant reduction of the tumor growth
TCR-driven IFNγ [2]: significantly increased
TCR-driven IL-6 [2]: significantly increased
TCR-driven IL-17A [2]: significantly increased
B cell depletion in the spleen (B cells): Dose-dependent B cell depletion

CC(C)=CCC/C(C)=C/COC1CCOP(=O)(NCCCl)N1CCCl (stereo not drawn) [G-IFO, geranyloxy-Ifosfamide]
tumor growth ([1]; G-IFO eq. 100 mg/kg): able to delay tumor growth; also recorded: showed an antitumoral activity; also recorded: delayed tumor-growth
tumor growth delay compared to CPA 100 mg/kg ([1]; G-IFO eq. 100 mg/kg, FIG. 2D): lower tumor growth delay
tumor growth (rhabdomyosarcoma): prevent tumor growth
T cell depletion (T cells; G-IFO eq. 150 mg/kg): induced T cell depletion
conversion into 4-hydroxy-ifosfamide metabolite [3]: rapidly converted
cytotoxicity [4]: cytotoxic
B cell depletion in the spleen (B cells): Dose-dependent B cell depletion
B cells population (B cells; G-IFO low dose eq. 100 mg/kg, i.p.): very affected
IFNγ secretion (Th1 polarization) ([5]; G-IFO eq. 100 mg/kg): favored IFNγ secretion; also recorded: increase
IL-6 secretion ([5]; G-IFO eq. 100 mg/kg): increase
IFNγ secretion ([5]; G-IFO eq. 150 mg/kg): poor secretion of IFNγ
IL-6 secretion ([5]; G-IFO eq. 150 mg/kg): high levels of IL-6
IL-17 secretion ([5]; escalating doses of G-IFO): No significant IL-17 secretion

O=P1(NCCCl)OCCCN1CCCl (stereo not drawn) [IFO, ifosfamide]
tumor growth ([1]; IFO 100, 150, 200 and 300 mg/kg): delay of tumor growth
TCR-driven IFNγ [2]: significant increase
TCR-driven IL-6 [2]: significant increase
TCR-driven IL-17A [2]: significant increase
tumor growth ([6]; IFO 150 mg/kg single i.p., non-depleted mice): Significant reduction of the tumor growth
antitumor effect ([6]; IFO 150 mg/kg, CD4+ T cells and CD8+ T cells depleted mice): decrease of the antitumor effect
antitumor efficacy ([6]; IFO 150 mg/kg, mice depleted with both CD4+ and CD8+ T cells): completely abolished
improved disease-free survival (osteosarcoma; children previously treated with conventional chemotherapy): 30 % of patients
severe nephrotoxicity, share of patients (osteosarcoma): a quarter
T cell counts (T cells; IFO 100 and 150 mg/kg): no T cell counts decrease
T cell counts (T cells; IFO higher doses (200 and 300 mg/kg)): T cell counts diminution
efficacy [7]: effective
toxicities [7]: major toxicities
B cell depletion in the spleen (B cells): Dose-dependent B cell depletion
TCR-driven IL-6 compared to CPA 100 mg/kg ([5]; IFO 150 mg/kg): more
TCR-driven IL-17 compared to CPA 100 mg/kg ([5]; IFO 150 mg/kg): more
TCR-driven IFNγ [5, 8]: significant secretion
TCR-driven IL-6 [5, 8]: significant secretion
TCR-driven IL-17A [5, 8]: significant secretion
TCR-driven IFNγ ([5]; IFO 200 and 300 mg/kg): failed to induce
TCR-driven IL-6 ([5]; IFO 200 and 300 mg/kg): remained highly secreted
TCR-driven IL-17A ([5]; IFO 200 and 300 mg/kg): failed to induce

CC(C)=CCC/C(C)=C/CC/C(C)=C/CC/C=C(\C)CC/C=C(\C)CCC(=O)NCCSC1CCOP(=O)(NCCCl)N1CCCl (stereo not drawn) [SQ-thio-IFO]
cytotoxicity (several cancerous cells): display cytotoxicity

CC(C)=CCC/C(C)=C/CC/C(C)=C/CC/C=C(\C)CC/C=C(\C)CCCOC1CCOP(=O)(NCCCl)N1CCCl (stereo not drawn) [SQ-IFO]
cytotoxicity (several cancerous cells): display cytotoxicity

Reference: patent publication US20230390312A1, “NOVEL THERAPEUTIC COMBINATIONS COMPRISING DERIVATIVES OF OXAZAPHOSPHORINES FOR THE TREATMENT OF CANCER” (INSTITUT GUSTAVE ROUSSY, priority 2019, published 2023)
